Type in all cases: functional
Assay [1] is filed under the species Mus musculus. Briefly: Induction of IL-4 production in BALB/c mouse after 6 hrs by ELISA.
For assay [2], the species on record is Mus musculus. Nature of the assay: Induction of IFN-gamma production in BALB/c mouse after 6 hrs by ELISA. (In general: ELISA stands for enzyme-linked immunosorbent assay.)
Assay [3] is filed under the species Mus musculus. Nature of the assay: Ratio of induction of IFN-gamma production to induction of IL-4 production in BALB/c mouse after 6 hrs.

`CCCCCCCCCCCCCCCCCCCCCCCCCC(=O)N[C@@H](CO[C@H]1O[C@H](CO)[C@H](O)[C@H](O)[C@H]1O)[C@H](O)[C@H](O)CCCCCCCCCCCCCC` [RGI-7000]: the Activity in assay [1] was found to be 1450 pg/mL; in assay [2] it was 12145 pg/mL. For the same compound, in assay [3], the Ratio turned out to be 8.35.
For `CCCCCCCCCCCCCCCCCCCCCCCCCC(=O)O[C@H](CCCCCCCCCCCCCC)[C@@H](O)[C@@H](O)CC[C@H]1O[C@H](CO)[C@H](O)[C@H](O)[C@H]1O`, the Activity in assay [1] is 83 pg/mL; in assay [2], 90 pg/mL. Besides, the Ratio in assay [3] came to 1.37.

The record behind these values is ChEMBL document CHEMBL1759948, “Use of the NEO strategy (Nucleophilic addition/Epoxide Opening) for the synthesis of a new C-galactoside ester analogue of KRN 7000” (2011).
